Measured values as given in patent US20140137274A1, “INDUCED MALIGNANT STEM CELLS” (LSIP, LLC, priority 2011, published 2014).

System: cancer-related miRNAs
Assay: miRNA expression microarray (SurePrint G3 Human miRNA Microarray Rel.16.0)
Conditions: logarithmic (log2) value of quotient vs control
Procedure: Total RNA was prepared from each of six induced malignant stem cells, one induced non-malignant stem cell, and one induced pluripotent stem cell as mentioned above, and the prepared total RNAs were used in Agilent SurePrint G3 Human miRNA Microarray Rel.16.0 to detect abnormal expression (increased or reduced/lost expression) of non-coding RNAs such as endogenous cancer-related microRNAs in the induced malignant stem cells.
Complete Labeling Reagent and Hyb Kit in accordance with the Agilent protocol. To be specific, each sample total RNA (100 ng) was dephosphorylated with Calf Intestine Alkaline Phosphatase (CIP), and the RNA molecule on its 3′ terminal side was labeled with a cyanine 3-cytidine bisphosphate (pCp-Cy3) molecule using T4 RNA Ligase.
The RNA samples labeled in (14-2-3) were hybridized with SurePrint G3 Human miRNA Microarray Rel.16.0 using Agilent miRNA Complete Labeling Reagent and Hyb Kit. To be specific, each of the labeled RNAs was added to a hybridization buffer and allowed to hybridize on SurePrint G3 Human miRNA Microarray Rel.16.0 for 20 hours. After washing, the DNA microarray image was scanned by Agilent Microarray Scanner, and fluorescence signals from the spots were digitized by Feature Extraction Software (v.10.7.3.1).
The miRNAs were annotated using miRBase Release 18, and hybridization was performed onto a microarray chip with the probes designed for the miRNAs shown in the following table (refer to Table 31 below).
In this analysis, the normalized value of the digital data for the hybridization of a subject cell (induced malignant stem cell) sample was divided by the normalized value from the digital data for the hybridization of a control cell sample and the quotient was used as a measure of variation in expression. Probes for which the quotients deviated from 1 (i.e., log21=0) were considered to indicate a variation in expression; those showing quotients greater than 2 (log22=1) or smaller than 0.5 (log20.5=−1) were selected. For each of the comparisons shown below, the genes shown in the tyrosine kinase list and those shown in the cancer drug targets list were analyzed to make respective lists of the genes showing quotients greater than 2 (log22=1) or smaller than 0.5 (log20.5=−1), as compared with the quotient for the control (taken as 1). The analysis was performed using GeneSpring 12.1.
The Normalized column represents a variation in expression in logarithmic values.

Row | Substance | Normalized (variation in microRNA expression, subject cell / control cell) ([Ngc1_7]vs [Nib2_17]) | Normalized (variation in microRNA expression, subject cell / control cell) ([cc4_c]vs [Nfb2_17]) | Normalized (variation in microRNA expression, subject cell / control cell) ([gc1_6]vs [Ngc1_7]) | Normalized (variation in microRNA expression, subject cell / control cell) ([gcl_6]vs [Nfb2_17]) | Normalized (variation in microRNA expression, subject cell / control cell) ([gc2_5]vs [Nfb2_17]) | Normalized (variation in microRNA expression, subject cell / control cell) ([gc2_10]vs +Nfb2_17]) | Normalized (variation in microRNA expression, subject cell / control cell) ([gc2_1]vs [Nfb2_17])
1 | hsa-let-7i-5p (AACAGCACAAACTACTACCTC; chemistry not given here) | 2.747 | 4.054 | −1.307 | 1.44 |  |  | 
2 | hsa-miR-373-3p (ACACCCCAAAATCGAAGC; chemistry not given here) | −2.818 |  | 1.725 | −1.094 | −2.93 | −3.202 | 
3 | hsa-let-7f-5p (AACTATACAATCTACTACCTC; chemistry not given here) |  | 5.523 | −1.421 |  |  |  | 
4 | hsa-miR-210 (TCAGCCGCTGTCACAC; chemistry not given here) | 1.643 | 3.796 |  | 2.036 | −1.628 |  | 
5 | hsa-miR-7-5p (ACAACAAAATCACTAGTCTTCC; chemistry not given here) |  | 2.213 |  |  |  |  | 
6 | hsa-miR-34c-5p (GCAATCAGCTAACTACACTG; chemistry not given here) |  | 1.308 |  |  |  |  | 
7 | hsa-let-7b-5p (AACCACACAACCTACTACC; chemistry not given here) |  |  | −1.937 |  |  |  | 
8 | hsa-miR-20a-5p (CTACCTGCACTATAAGCAC; chemistry not given here) |  |  |  |  | −4.951 | −5.12 | −4.784
9 | hsa-miR-125b-5p (TCACAAGTTAGGGTCTC; chemistry not given here) | 1.982 | 2.946 | −1.393 |  | −2.411 |  | −1.425
10 | hsa-miR-16-5p (CGCCAATATTTACGTGCTG; chemistry not given here) |  |  |  |  | −4.816 | −4.956 | −5.228
11 | hsa-miR-124-3p (GGCATTCACCGCGTGC; chemistry not given here) | 1.242 |  |  | 1.88 |  |  | 
12 | hsa-let-7a-5p (AACTATACAACCTACTACCT; chemistry not given here) | 1.941 | 5.026 | −1.09 |  | −1.334 |  | −1.233
13 | hsa-miR-27b-3p (GCAGAACTTAGCCACTGT; chemistry not given here) |  | 2.569 |  |  |  | −2.297 | −2.575
14 | hsa-miR-29a-3p (TAACCGATTTCAGATGGTGC; chemistry not given here) |  | 3.972 |  |  |  | −3.561 | 
15 | hsa-miR-205-5p (CAGACTCCGGTGGAAT; chemistry not given here) | −1.315 |  |  |  | −2.341 | −2.908 | −1.577
16 | hsa-miR-183-5p (AGTGAATTCTACCAGTGCCA; chemistry not given here) |  | 1.285 |  |  |  | −1.886 | 
17 | hsa-let-7c (AACCATACAACCTACTACC; chemistry not given here) | 2.65 |  | −1.801 |  |  |  | 

Row | Substance | Normalized (variation in microRNA expression, subject cell / control cell) ([Ngc1_7]vs [Nib2_17]) | Normalized (variation in microRNA expression, subject cell / control cell) ([cc4_c]vs [Nfb2_17]) | Normalized (variation in microRNA expression, subject cell / control cell) ([gc1_6]vs [Ngc1_7]) | Normalized (variation in microRNA expression, subject cell / control cell) ([gcl_6]vs [Nfb2_17]) | Normalized (variation in microRNA expression, subject cell / control cell) ([gc2_5]vs [Nfb2_17]) | Normalized (variation in microRNA expression, subject cell / control cell) ([gc2_10]vs +Nfb2_17]) | Normalized (variation in microRNA expression, subject cell / control cell) ([gc2_1]vs [Nfb2_17])
18 | hsa-miR-34a-5p (ACAACCAGCTAAGACACTGC; chemistry not given here) |  |  |  |  | −2.833 | −2.706 | −2.608
19 | hsa-miR-29b-3p (AACACTGATTTCAAATGGTGC; chemistry not given here) |  | 4.488 |  |  |  |  | 
20 | hsa-miR-134 (CCCCTCTGGTCAA; chemistry not given here) | 2.736 |  |  | 2.883 | 1.299 | 2.829 | 1.853
21 | hsa-miR-20b-5p (CTACCTGCACTATGAGCAC; chemistry not given here) |  | −3.293 |  |  | −3.269 | −3.502 | −3.152
22 | hsa-miR-25-3p (TCAGACCGAGACAAGTGC; chemistry not given here) |  |  |  |  | −1.478 | −1.515 | −1.899
23 | hsa-miR-125a-5p (TCACAGGTTAAAGGGTCTC; chemistry not given here) |  | 1.809 | −1.373 |  | −1.149 |  | 
24 | hsa-miR-I7-5p (CTACCTGCACTGTAAGC; chemistry not given here) |  |  |  |  |  | −3.619 | 
25 | hsa-miR-130a-3p (ATGCCCTTTTAACATTGCA; chemistry not given here) |  | −4.732 |  |  | −5.014 | −5.029 | −5.267
26 | hsa-1et-7c (AACCATACAACCTACTACC; chemistry not given here) |  | 4.789 |  |  |  |  | 
27 | hSA-lEt-7f-5p (AACTATACAATCTACTACCTC; chemistry not given here) | 2.259 |  |  |  |  |  | 
28 | hsa-miR-18a-5p (CTATCTGCACTAGATGCA; chemistry not given here) |  | −1.44 |  |  |  |  | 
29 | hsa-miR-17-5p (CTACCTGCACTGTAAGC; chemistry not given here) |  |  |  |  | −3.466 |  | −3.19
30 | hsa-miR-193b-3p (AGCGGGACTTTGAGGG; chemistry not given here) |  |  |  |  |  | 1.098 | 
31 | hsa-miR-23b-3p (GGTAATCCCTGGCAATG; chemistry not given here) | 1.154 | 3.268 | −1.014 |  |  |  | 
32 | hsa-let-7g-5p (AACTGTACAAACTACTACCTC; chemistry not given here) |  |  | −1.935 |  |  |  | 
33 | hsa-miR-372 (ACGCTCAAATGTCGCAGC; chemistry not given here) | −3.388 |  | 2.003 | −1.385 |  |  | 
34 | hsa-miR-200c-3p (TCCATCATTACCCGG; chemistry not given here) | 1.59 | 4.536 |  | 2.005 |  | −1.715 | −1.393
